# From patent US6699854B2, “Anti-cancer compounds” (Cyclacel Limited, priority 2000, dated 2004)
# Molecular target: T1, CDK2/cyclin E (Homo sapiens, UniProt P24941)
# T1 construct: His; made in house; host or cells: Sf9 insect cells (baculovirus)
# Test: CDK2/cyclin E kinase assay (GST-Rb phosphorylation);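 further: enzyme source: His-tagged CDK2/cyclin E co-expressed in Sf9 insect cells via baculovirus, then purified by metal-chelate chromatography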
# Assay type: biochemical
# Settings: Table 2, further results for CDK2/cyclin E inhibition; read-out: CDK2/cyclin E
row,IC50,Compound
1,4700 nM,"O=[N+]([O-])c1cccc(Nc2nccc(-c3cc(Cl)sc3Cl)n2)c1 [Compound 9, {4-(2,5-Dichloro-thiophen-3-yl)-pyrimidin-2-yl}-(3-nitro-phenyl)-amine]"
2,20 nM,"Cc1nc(C)c(-c2ccnc(Nc3ccc(F)cc3F)n2)s1 [Compound 22, (2,4-Difluoro-phenyl)-{4-(2,4-dimethyl-thiazol-5-yl)-pyrimidin-2-yl}-amine]"
3,1700 nM,"Cc1nc(C)c(-c2ccnc(Nc3cc(F)cc(F)c3)n2)s1 [Compound 23, (3,5-Difluoro-phenyl)-{4-(2,4-dimethyl-thiazol-5-yl)-pyrimidin-2-yl}-amine]"
4,940 ± 490 nM,"Cc1nc(C)c(-c2ccnc(Nc3cccc(Br)c3)n2)s1 [Compound 30, (3-Bromo-phenyl)-{4-(2,4-dimethyl-thiazol-5-yl)-pyrimidin-2-yl}-amine]"
5,200 nM,"Cc1nc(C)c(-c2ccnc(Nc3cccc(I)c3)n2)s1 [Compound 33, {4-(2,4-Dimethyl-thiazol-5-yl)-pyrimidin-2-yl}-(3-iodo-phenyl)-amine]"
6,500 ± 200 nM,"Cc1nc(C)c(-c2ccnc(Nc3ccc(F)c(F)c3)n2)s1 [Compound 36, (3,4-Difluoro-phenyl)-{4-(2,4-dimethyl-thiazol-5-yl)-pyrimidin-2-yl}-amine]"
7,6400 ± 100 nM,"COc1ccccc1Nc1nccc(-c2sc(C)nc2C)n1 [Compound 37, {4-(2,4-Dimethyl-thiazol-5-yl)-pyrimidin-2-yl}-(2-methoxy-phenyl)-amine]"
8,10 nM,"Cc1nc(C)c(-c2cc(Br)nc(Nc3cccc([N+](=O)[O-])c3)n2)s1 [Compound 54, {4-Bromo-6-(2,4-dimethyl-thiazol-5-yl)-pyrimidin-2-yl}-(3-nitro-phenyl)-amine]"
9,1200 nM,"CNc1nc(C)c(-c2ccnc(Nc3cccc(F)c3)n2)s1 [Compound 103, (3-Fluoro-phenyl)-{4-(4-methyl-2-methylamino-thiazol-5-yl)-pyrimidin-2-yl}-amine]"
10,800 nM,"CNc1nc(C)c(-c2ccnc(Nc3cccc(Cl)c3)n2)s1 [Compound 108, (3-Chloro-phenyl)-{4-(4-methyl-2-methylamino-thiazol-5-yl)-pyrimidin-2-yl}-amine]"
11,1400 nM,"Cc1nc(N)sc1-c1ccnc(Nc2ccc(O)cc2)n1 [Compound 114, 4-{4-(2-Amino-4-methyl-thiazol-5-yl)-pyrimidin-2-ylamino}-phenol]"
12,700 nM,"CCN(CC)CCOCc1cccc(Nc2nccc(-c3sc(C)nc3C)n2)c1 [Compound 118, {3-(2-Diethylamino-ethoxymethyl)-phenyl}-{4-(2,4-dimethyl-thiazol-5-yl)-pyrimidin-2-yl}-amine]"

# System: A549
# Test: 72-h MTT cytotoxicity assay, A549
# Assay type: cell-based, human
# Settings: Homo sapiens, A549, read-out: A549
# Experimental: Selected compounds from the above examples were subjected to a standard cellular proliferation assay using a range of different human tumour cell lines. Standard 72-h MTT (thiazolyl blue; 3-{4,5-dimethylthiazol-2-yl}-2,5-diphenyltetrazolium bromide) assays were performed (Haselsberger, K.; Peterson, D. C.; Thomas, D. G.; Darling, J. L. Anti Cancer Drugs 1996, 7, 331-8; Loveland, B. E.; Johns, T. G.; Mackay, I. R.; Vaillant, F.; Wang, Z. X.; Hertzog, P. J. Biochemistry International 1992, 27, 501-10). Human tumour cell lines were obtained from the ATCC (American Type Culture Collection, 10801 University Boulevard, Manessas, Va. 20110-2209, USA).
row,Compound,IC50
1,"CNc1nc(C)c(-c2ccnc(Nc3ccc(O)cc3)n2)s1 [Compound 63, 4-{4-(4-Methyl-2-methylamino-thiazol-5-yl)-pyrimidin-2-ylamino}-phenol]",0.8 ± 0.2 µM

# Same assay, conditions: Homo sapiens, Table 4, additional data for cytotoxicity assay using the A549 cell line; read-out: A549
row,Compound,IC50
1,"Clc1cc(-c2ccnc(Nc3ccccc3Cl)n2)c(Cl)s1 [Compound 2, (2-Chloro-phenyl)-{4-(2,5-dichloro-thiophen-3-yl)-pyrimidin-2-yl}-amine]",41 ± 8 µM
2,"Clc1ccc(Nc2nccc(-c3cc(Cl)sc3Cl)n2)cc1 [Compound 3, (4-Chloro-phenyl)-{4-(2,5-dichloro-thiophen-3-yl)-pyrimidin-2-yl}-amine]",5 ± 4 µM
3,"Clc1cccc(Nc2nccc(-c3cc(Cl)sc3Cl)n2)c1 [Compound 4, (3-Chloro-phenyl)-{4-(2,5-dichloro-thiophen-3-yl)-pyrimidin-2-yl}-amine]",16 ± 11 µM
4,"Cc1nc(C)c(-c2ccnc(Nc3cccc(Cl)c3)n2)s1 [Compound 7, (3-Chloro-phenyl)-{4-(2,4-dimethyl-thiazol-5-yl)-pyrimidin-2-yl}-amine]",2.8 µM
5,"Cc1cc(-c2ccnc(Nc3ccccc3Cl)n2)c(C)s1 [Compound 15, (2-Chloro-phenyl)-{4-(2,5-dimethyl-thiophen-3-yl)-pyrimidin-2-yl}-amine]",6 µM
6,"Cc1nc(C)c(-c2ccnc(Nc3ccc(F)cc3F)n2)s1 [Compound 22, (2,4-Difluoro-phenyl)-{4-(2,4-dimethyl-thiazol-5-yl)-pyrimidin-2-yl}-amine]",20 ± 1 µM
7,"Cc1nc(C)c(-c2ccnc(Nc3cc(Cl)cc(Cl)c3)n2)s1 [Compound 24, (3,5-Dichloro-phenyl)-{4-(2,4-dimethyl-thiazol-5-yl)-pyrimidin-2-yl}-amine]",5 µM
8,"Cc1nc(C)c(-c2ccnc(Nc3ccc(Cl)cc3Cl)n2)s1 [Compound 25, (2,4-Dichloro-phenyl)-{4-(2,4-dimethyl-thiazol-5-yl)-pyrimidin-2-yl}-amine]",1.5 µM
9,"Cc1nc(C)c(-c2ccnc(Nc3cccc(C(F)(F)F)c3)n2)s1 [Compound 26, {4-(2,4-Dimethyl-thiazol-5-yl)-pyrimidin-2-yl}-(3-trifluoromethyl-phenyl)-amine]",3.3 µM
10,"Cc1nc(C)c(-c2ccnc(Nc3ccccc3C(F)(F)F)n2)s1 [Compound 27, {4-(2,4-Dimethyl-thiazol-5-yl)-pyrimidin-2-yl}-(2-trifluoromethyl-phenyl)-amine]",3.8 µM
11,"Cc1nc(C)c(-c2ccnc(Nc3cccc(Br)c3)n2)s1 [Compound 30, (3-Bromo-phenyl)-{4-(2,4-dimethyl-thiazol-5-yl)-pyrimidin-2-yl}-amine]",6.4 ± 0.05 µM
12,"Cc1nc(C)c(-c2ccnc(Nc3ccccc3I)n2)s1 [Compound 32, {4-(2,4-Dimethyl-thiazol-5-yl)-pyrimidin-2-yl}-(2-iodo-phenyl)-amine]",23 µM
13,"Cc1nc(C)c(-c2ccnc(Nc3cccc(I)c3)n2)s1 [Compound 33, {4-(2,4-Dimethyl-thiazol-5-yl)-pyrimidin-2-yl}-(3-iodo-phenyl)-amine]",61 ± 55 µM
14,"Cc1nc(C)c(-c2ccnc(Nc3cccc(F)c3)n2)s1 [Compound 35, {4-(2,4-Dimethyl-thiazol-5-yl)-pyrimidin-2-yl}-(3-fluoro-phenyl)-amine]",4.2 µM
15,"COc1ccccc1Nc1nccc(-c2sc(C)nc2C)n1 [Compound 37, {4-(2,4-Dimethyl-thiazol-5-yl)-pyrimidin-2-yl}-(2-methoxy-phenyl)-amine]",25 µM
16,"Cc1nc(C)c(-c2ccnc(Nc3cccc(O)c3)n2)s1 [Compound 40, 3-{4-(2,4-Dimethyl-thiazol-5-yl)-pyrimidin-2-ylamino}-phenol]",0.3 µM
17,"Cc1nc(C)c(-c2ccnc(Nc3ccc(O)cc3)n2)s1 [Compound 41, 4-{4-(2,4-Dimethyl-thiazol-5-yl)-pyrimidin-2-ylamino}-phenol]",0.02 µM
18,"Cc1nc(C)c(-c2ccnc(NS(=O)(=O)c3cccc([N+](=O)[O-])c3)n2)s1 [Compound 42, N-{4-(2,4-Dimethyl-thiazol-5-yl)-pyrimidin-2-yl}-3-nitro-benzenesulfonamide]",56 µM
19,"Cc1nc(C)c(-c2ccnc(Nc3cccc(N)c3)n2)s1 [Compound 47, N-{4-(2,4-Dimethyl-thiazol-5-yl)-pyrimidin-2-yl}-benzene-1,3-diamine]",1.8 ± 1.4 µM
20,"Cc1nc(-c2ccccc2)sc1-c1ccnc(Nc2ccc(F)c(F)c2)n1 [Compound 59, (3,4-Difluoro-phenyl)-{4-(4-methyl-2-phenyl-thiazol-5-yl)-pyrimidin-2-yl}-amine]",22 ± 21 µM
21,"Cc1nc(C)c(-c2cc(-c3ccc(C(F)(F)F)cc3)nc(Nc3ccc(Cl)cc3)n2)s1 [Compound 65, (4-Chloro-phenyl)-{4-(2,4-dimethyl-thiazol-5-yl)-6-(4-trifluoromethyl-phenyl)-pyrimidin-2-yl}-amine]",55 ± 50 µM
22,"COc1cc(-c2cc(-c3sc(C)nc3C)nc(Nc3ccc(F)cc3)n2)cc(OC)c1O [Compound 69, 4-{6-(2,4-Dimethyl-thiazol-5-yl)-2-(4-fluoro-phenylamino)-pyrimidin-4-yl}-2,6-dimethoxy-phenol]",12 ± 5 µM
23,"Cc1nc(C)c(-c2cc(-c3ccc(O)cc3)nc(Nc3ccc(F)cc3)n2)s1 [Compound 70, 4-{6-(2,4-Dimethyl-thiazol-5-yl)-2-(4-fluoro-phenylamino)-pyrimidin-4-yl}-phenol]",3 ± 1 µM
24,"CNc1nc(C)c(-c2ccnc(Nc3cccc(O)c3)n2)s1 [Compound 85, 3-{4-(4-Methyl-2-methylamino-thiazol-5-yl)-pyrimidin-2-ylamino}-phenol]",0.4 µM
25,"CCOC(=O)c1cc(Nc2nccc(-c3sc(C)nc3C)n2)ccc1Cl [Compound 92, 2-Chloro-5-{4-(2,4-dimethyl-thiazol-5-yl)-pyrimidin-2-ylamino}-benzoic acid ethyl ester]",4.4 ± 3 µM
26,"CCOC(=O)c1cccc(Cl)c1Nc1nccc(-c2sc(C)nc2C)n1 [Compound 93, 3-Chloro-2-{4-(2,4-dimethyl-thiazol-5-yl)-pyrimidin-2-ylamino}-benzoic acid ethyl ester]",1.1 ± 1 µM
27,"COc1ccc(Nc2nccc(-c3sc(C)nc3C)n2)c(O)c1 [Compound 95, 2-{4-(2,4-Dimethyl-thiazol-5-yl)-pyrimidin-2-ylamino}-5-methoxy-phenol]",0.05 ± 0.03 µM
28,"COC(=O)c1cc(Nc2nccc(-c3sc(C)nc3C)n2)ccc1Cl [Compound 99, 2-Chloro-5-{4-(2,4-dimethyl-thiazol-5-yl)-pyrimidin-2-ylamino}-benzoic acid methyl ester]",3.7 ± 2.7 µM
29,"COC(=O)c1ccc(Nc2nccc(-c3sc(C)nc3C)n2)cc1Cl [Compound 101, 2-Chloro-4-{4-(2,4-dimethyl-thiazol-5-yl)-pyrimidin-2-ylamino}-benzoic acid methyl ester]",0.9 ± 0.2 µM
30,"CNc1nc(C)c(-c2ccnc(Nc3ccc(F)c(F)c3)n2)s1 [Compound 104, (3,4-Difluoro-phenyl)-{4-(4-methyl-2-methylamino-thiazol-5-yl)-pyrimidin-2-yl}-amine]",4.9 ± 2.5 µM

# Same assay, conditions: Table 4, additional data for cytotoxicity assay using the A549 cell line; read-out: A549
row,Compound,IC50
1,"Cc1nc(C)c(-c2cc(-c3ccccc3)nc(Nc3cccc([N+](=O)[O-])c3)n2)s1 [Compound 57, {4-(2,4-Dimethyl-thiazol-7-yl)-6-phenyl-pyrimidin-2-yl}-(3-nitro-phenyl)-amine]",5.2 ± 0.4 µM
2,"C=CCNc1nc(C)c(-c2ccnc(Nc3cccc([N+](=O)[O-])c3)n2)s1 [Compound 91, {4-(2-Allylamino-4-methyl-thiazol-5-yl)-pyrimidin-2-yl}-(3-nitro-phenyl)-amine]",22.1 ± 0.2 µM
